Measurements as given in patent publication US8178658B2 (Dow AgroSciences, LLC, priority 2008, dated 2012).

Key:
[1] = test system: beet armyworm (BAW; Spodoptera exigua: Lepidoptera); experiment: 128-well diet tray assay on beet armyworm (BAW 50); assay type: in vivo; conditions: 128-well diet tray assay, second instar BAW larvae, mortality class; for BAW 50 ug/cm2: 50 μg/cm^2 of test compound on diet
In short: (§1)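 Two diet formats. HTS: eggs on 96-well diet overlaid with 12 μg compound, held 6 d at 29° C in dark, mean mortality of six replicates. BAW 50: three to five second-instar larvae per well on diet dosed at 50 μg/cm^2, held six days at 25° C under 14:10 light-dark, mortality averaged across eight wells.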

[2] = test system: beet armyworm (BAW; Spodoptera exigua: Lepidoptera); experiment: 96-well microtiter plate-based high throughput (HTS) diet bioassay on beet armyworm (BAW HTS); assay type: in vivo; conditions: BAW eggs, 12 μg test compound per well, mortality at 6 d post-treatment, mortality class
In short: as §1

[3] = 96-well microtiter plate HTS diet assay

With `CO[C@@H]1[C@@H](OC)[C@H](C)O[C@@H](O/N=C/c2ccc(-c3ncn(-c4ccc(C(F)(F)F)cc4)n3)cc2)[C@@H]1OC` [Compound 80] the “BAW 50 ug/cm2” value [1] was “A (the compound was tested and at least 50 percent mortality was observed)”, the “BAW HTS” value ([2]; 96-well HTS diet bioassay) was “A (the compound was tested and at least 50 percent mortality was observed)” and the “BAW HTS” value [2, 3] was “A (the compound was tested and at least 50 percent mortality was observed)”.

In the case of `CCCCc1ccc(-n2cnc(-c3ccc(C=NOC4OC(C)C(OC)C(OC)C4OC)cc3)n2)cc1` (stereo not shown) [Compound 81], the “BAW 50 ug/cm2” value [1] was “A (the compound was tested and at least 50 percent mortality was observed)”, the “BAW HTS” value ([2]; 96-well HTS diet bioassay) was “A (the compound was tested and at least 50 percent mortality was observed)” and the “BAW HTS” value [2, 3] was “A (the compound was tested and at least 50 percent mortality was observed)”.

In the case of `COC1C(C)OC(ON=Cc2ccc(-c3ncn(-c4ccc(OC(F)(F)F)cc4)n3)cc2)C(OC)C1OC` (stereo not shown) [Compound 82], the “BAW 50 ug/cm2” value [1] was “A (the compound was tested and at least 50 percent mortality was observed)”, the “BAW HTS” value ([2]; 96-well HTS diet bioassay) was “B (either (1) the compound was tested and less than 50 percent mortality was observed or (2) the compound was not tested)” and the “BAW HTS” value [2, 3] was “B (either (1) the compound was tested and less than 50 percent mortality was observed or (2) the compound was not tested)”.

For `COC1C(C)OC(ON=Cc2ccc(-c3ncn(-c4ccc(C(C)C)cc4)n3)cc2)C(OC)C1OC` (stereo not shown) [Compound 83], the “BAW 50 ug/cm2” value [1] was “A (the compound was tested and at least 50 percent mortality was observed)”, the “BAW HTS” value ([2]; 96-well HTS diet bioassay) was “B (either (1) the compound was tested and less than 50 percent mortality was observed or (2) the compound was not tested)” and the “BAW HTS” value [2, 3] was “B (either (1) the compound was tested and less than 50 percent mortality was observed or (2) the compound was not tested)”.

For `COC1C(C)OC(ON=Cc2ccc(-c3ncn(-c4ccc(Cl)cc4)n3)cc2)C(OC)C1OC` (stereo not shown) [Compound 84], the “BAW 50 ug/cm2” value [1] was “A (the compound was tested and at least 50 percent mortality was observed)”, the “BAW HTS” value ([2]; 96-well HTS diet bioassay) was “B (either (1) the compound was tested and less than 50 percent mortality was observed or (2) the compound was not tested)” and the “BAW HTS” value [2, 3] was “B (either (1) the compound was tested and less than 50 percent mortality was observed or (2) the compound was not tested)”.

In the case of `COc1ccc(-n2cnc(-c3ccc(C=NOC4OC(C)C(OC)C(OC)C4OC)cc3)n2)cc1` (stereo not shown) [Compound 85], the “BAW 50 ug/cm2” value [1] was “A (the compound was tested and at least 50 percent mortality was observed)”, the “BAW HTS” value ([2]; 96-well HTS diet bioassay) was “B (either (1) the compound was tested and less than 50 percent mortality was observed or (2) the compound was not tested)” and the “BAW HTS” value [2, 3] was “B (either (1) the compound was tested and less than 50 percent mortality was observed or (2) the compound was not tested)”.

`COC1C(C)OC(ON=Cc2ccc(-c3ncn(-c4ccc(C(C)(C)C)cc4)n3)cc2)C(OC)C1OC` (stereo not shown) [Compound 86] was tested, and the “BAW 50 ug/cm2” value [1] was “A (the compound was tested and at least 50 percent mortality was observed)”, the “BAW HTS” value ([2]; 96-well HTS diet bioassay) was “B (either (1) the compound was tested and less than 50 percent mortality was observed or (2) the compound was not tested)” and the “BAW HTS” value [2, 3] was “B (either (1) the compound was tested and less than 50 percent mortality was observed or (2) the compound was not tested)”.

`COC1C(C)OC(ON=Cc2ccc(-c3ncn(-c4ccc(SC(F)(F)F)cc4)n3)cc2)C(OC)C1OC` (stereo not shown) [Compound 87] was tested, and the “BAW 50 ug/cm2” value [1] was “A (the compound was tested and at least 50 percent mortality was observed)”, the “BAW HTS” value ([2]; 96-well HTS diet bioassay) was “B (either (1) the compound was tested and less than 50 percent mortality was observed or (2) the compound was not tested)” and the “BAW HTS” value [2, 3] was “B (either (1) the compound was tested and less than 50 percent mortality was observed or (2) the compound was not tested)”.

For `COC1C(C)OC(ON=Cc2ccc(-c3ncn(-c4ccc(OC(F)(F)C(F)F)cc4)n3)cc2)C(OC)C1OC` (stereo not shown) [Compound 88], the “BAW 50 ug/cm2” value [1] was “A (the compound was tested and at least 50 percent mortality was observed)”, the “BAW HTS” value ([2]; 96-well HTS diet bioassay) was “B (either (1) the compound was tested and less than 50 percent mortality was observed or (2) the compound was not tested)” and the “BAW HTS” value [2, 3] was “B (either (1) the compound was tested and less than 50 percent mortality was observed or (2) the compound was not tested)”.

`COC1C(C)OC(ON=Cc2ccc(-c3ncn(-c4ccc(OC(F)(F)C(F)(F)F)cc4)n3)cc2)C(OC)C1OC` (stereo not shown) [Compound 89] was tested, and the “BAW 50 ug/cm2” value [1] was “A (the compound was tested and at least 50 percent mortality was observed)”, the “BAW HTS” value ([2]; 96-well HTS diet bioassay) was “B (either (1) the compound was tested and less than 50 percent mortality was observed or (2) the compound was not tested)” and the “BAW HTS” value [2, 3] was “B (either (1) the compound was tested and less than 50 percent mortality was observed or (2) the compound was not tested)”.

For `COC1C(C)OC(ON=Cc2ccc(-c3ncn(-c4ccc(SC)cc4)n3)cc2)C(OC)C1OC` (stereo not shown) [Compound 90], the “BAW 50 ug/cm2” value [1] was “A (the compound was tested and at least 50 percent mortality was observed)”, the “BAW HTS” value ([2]; 96-well HTS diet bioassay) was “B (either (1) the compound was tested and less than 50 percent mortality was observed or (2) the compound was not tested)” and the “BAW HTS” value [2, 3] was “B (either (1) the compound was tested and less than 50 percent mortality was observed or (2) the compound was not tested)”.

In the case of `COC1C(C)OC(ON=Cc2ccc(-c3ncn(-c4cccc(OC(F)(F)F)c4)n3)cc2)C(OC)C1OC` (stereo not shown) [Compound 91], the “BAW 50 ug/cm2” value [1] was “A (the compound was tested and at least 50 percent mortality was observed)”, the “BAW HTS” value ([2]; 96-well HTS diet bioassay) was “B (either (1) the compound was tested and less than 50 percent mortality was observed or (2) the compound was not tested)” and the “BAW HTS” value [2, 3] was “B (either (1) the compound was tested and less than 50 percent mortality was observed or (2) the compound was not tested)”.

`CCOC1C(C)OC(ON=Cc2ccc(-c3ncn(-c4ccc(OC(F)(F)C(F)(F)F)cc4)n3)cc2)C(OCC)C1OCC` (stereo not shown) [Compound 92] was tested, and the “BAW 50 ug/cm2” value [1] was “A (the compound was tested and at least 50 percent mortality was observed)”, the “BAW HTS” value ([2]; 96-well HTS diet bioassay) was “B (either (1) the compound was tested and less than 50 percent mortality was observed or (2) the compound was not tested)” and the “BAW HTS” value [2, 3] was “B (either (1) the compound was tested and less than 50 percent mortality was observed or (2) the compound was not tested)”.

`CCOC1C(OC)C(C)OC(ON=Cc2ccc(-c3ncn(-c4ccc(OC(F)(F)C(F)(F)F)cc4)n3)cc2)C1OC` (stereo not shown) [Compound 93] was tested, and the “BAW 50 ug/cm2” value [1] was “A (the compound was tested and at least 50 percent mortality was observed)”, the “BAW HTS” value ([2]; 96-well HTS diet bioassay) was “A (the compound was tested and at least 50 percent mortality was observed)” and the “BAW HTS” value [2, 3] was “A (the compound was tested and at least 50 percent mortality was observed)”.

With `CO[C@@H]1[C@@H](OC)[C@H](C)O[C@@H](O/N=C/c2ccc(-c3ncn(-c4ccc(OC(F)(F)C(F)C(F)(F)F)cn4)n3)cc2)[C@@H]1OC` (stereo partly drawn) [Compound 94, 4-{1-[5-(1,1,2,3,3,3-hexafluoropropoxy)-pyridinyl]-1H-[1,2,4]triazol-3-yl}-benzaldehyde O-((2S,3R,4R,5S,6S)-3,4,5-trimethoxy-6-methyl-tetrahydropyran-2-yl)-oxime] the “BAW 50 ug/cm2” value [1] was “A (the compound was tested and at least 50 percent mortality was observed)”, the pest or weed control at 50 µg/cm2, 50 µg/cm2 ([1]; Spodoptera exigua, 144 h, 50 μg/cm2 of test compound on diet, read-out: BAW 50 ug/cm2) was > 50% and the “BAW HTS” value [2, 3] was “B (either (1) the compound was tested and less than 50 percent mortality was observed or (2) the compound was not tested)”. The pest or weed control at 12 µg/well, 12 µg/well ([2]; Spodoptera exigua, 144 h, 96-well HTS diet bioassay, read-out: BAW HTS) was < 50%.

For `COC1C(C)OC(ON=Cc2ccc(-c3nc(-c4ccc(C(F)(F)F)cc4)n[nH]3)cc2)C(OC)C1OC` (stereo not shown) [Compound 95], the “BAW 50 ug/cm2” value [1] was “A (the compound was tested and at least 50 percent mortality was observed)”, the “BAW HTS” value ([2]; 96-well HTS diet bioassay) was “B (either (1) the compound was tested and less than 50 percent mortality was observed or (2) the compound was not tested)” and the “BAW HTS” value [2, 3] was “B (either (1) the compound was tested and less than 50 percent mortality was observed or (2) the compound was not tested)”.

With `COC1C(C)OC(ON=Cc2ccc(-c3nc(-c4ccc(Cl)cc4)n[nH]3)cc2)C(OC)C1OC` (stereo not shown) [Compound 96] the “BAW 50 ug/cm2” value [1] was “A (the compound was tested and at least 50 percent mortality was observed)”, the “BAW HTS” value ([2]; 96-well HTS diet bioassay) was “B (either (1) the compound was tested and less than 50 percent mortality was observed or (2) the compound was not tested)” and the “BAW HTS” value [2, 3] was “B (either (1) the compound was tested and less than 50 percent mortality was observed or (2) the compound was not tested)”.

In the case of `COC1C(C)OC(ON=Cc2ccc(-c3nc(-c4ccc(C(C)(C)C)cc4)n[nH]3)cc2)C(OC)C1OC` (stereo not shown) [Compound 97], the “BAW 50 ug/cm2” value [1] was “A (the compound was tested and at least 50 percent mortality was observed)”, the “BAW HTS” value ([2]; 96-well HTS diet bioassay) was “B (either (1) the compound was tested and less than 50 percent mortality was observed or (2) the compound was not tested)” and the “BAW HTS” value [2, 3] was “B (either (1) the compound was tested and less than 50 percent mortality was observed or (2) the compound was not tested)”.

`COC1C(C)OC(ON=Cc2ccc(-c3nn(-c4ccc(Cl)c(Cl)c4)c(=O)[nH]3)cc2)C(OC)C1OC` (stereo not shown) [Compound 98] was tested, and the “BAW 50 ug/cm2” value [1] was “A (the compound was tested and at least 50 percent mortality was observed)”, the “BAW HTS” value ([2]; 96-well HTS diet bioassay) was “B (either (1) the compound was tested and less than 50 percent mortality was observed or (2) the compound was not tested)” and the “BAW HTS” value [2, 3] was “B (either (1) the compound was tested and less than 50 percent mortality was observed or (2) the compound was not tested)”.

`COC1C(C)OC(ON=Cc2ccc(-c3nn(-c4c(F)c(F)c(C(F)(F)F)c(F)c4F)c(=O)[nH]3)cc2)C(OC)C1OC` (stereo not shown) [Compound 99] was tested, and the “BAW 50 ug/cm2” value [1] was “A (the compound was tested and at least 50 percent mortality was observed)”, the “BAW HTS” value ([2]; 96-well HTS diet bioassay) was “B (either (1) the compound was tested and less than 50 percent mortality was observed or (2) the compound was not tested)” and the “BAW HTS” value [2, 3] was “B (either (1) the compound was tested and less than 50 percent mortality was observed or (2) the compound was not tested)”.
